# Where a SMILES comes first, the peptide text is derived from it. [ ]: non-standard residue; d: D form. pGlu = O=C1CC[CH](C(=O)O)N1
# Tested on: STZ-induced hyperglycemic rats
# Assay: Effect on STZ-induced hyperglycemia in rats (blood glucose level)
# Format: in vivo, rat
# Protocol: Male Sprague-Dawley rats (S.D. 180 g) were used in the experiments described below. The animals lived in individual metabolism cages with free access to food and water, while food and body weight were monitored daily. Peripheral blood samples (approximately 10 μl) were obtained from the tail vein of the animals. The blood glucose levels were measured by using Accu-Check Blood Glucose Meter (Roche Diagnosetics Corporation, IN). Beta cell function was evaluated once every two days over a 2-week period by an individual unaware of the treatment group. Animals were evaluated separately for blood glucose level, food intake and body weight. The endpoint check was pancreatic insulin content and pancreatic beta cell number.
# Streptozotocin (STZ) was used to chemically induce damage in pancreatic function in order to create a hyperglycemic state in the animals. Eight-week old male Sprague-Dawley rats (200.00 g±10 g) were injected with STZ by intraperitoneal (i.p.) (65 mg/kg body weight (BW)) to create hyperglycemic animals (24 to 48 hours). Blood glucose levels were monitored daily. Onset of hyperglycemia occurred usually about 24 to 48 hours after STZ administration.
# […] the seventh day or on the third day after STZ administration, which allowed for examination of the TRH/TRH analog treatment and the degree of pancreatic damage in the diabetic animal. Again, food intake, body weight and blood glucose levels of each of the animals were monitored. When hyperglycemia was determined to be reversed by TRH/TRH analog, the animal was sacrificed. Blood samples were collected for insulin assay and the pancreas and muscles were collected for further pathological and physiological tests.
# The figures shown in the tables are blood glucose levels (mg/dL; i.e., milligrams of glucose per deciliter of blood).
# [1] = Table 1, rats, STZ + compound i.p., Day 1
# [2] = Table 1, rats, STZ + compound i.p., Day 2
# [3] = Table 1, rats, STZ + compound i.p., Day 4
# [4] = Table 1, rats, STZ + compound i.p., Day 9
# [5] = Table 1, rats, STZ + compound i.p., Day 15
# [6] = Table 1, rats, STZ + compound i.p., Day 22
# [7] = Table 1, rats, STZ + compound i.p., Day 29
# [8] = Table 1, rats, STZ + compound i.p., Day 39
# [9] = Table 1, rats, STZ + compound i.p., Day 43
# [10] = Table 1, rats, STZ + compound i.p., Day 50
# [11] = Table 1, rats, STZ + compound i.p., Day 53
# [12] = Table 1, rats, STZ + compound i.p., Day 56
# [13] = Table 1, rats, STZ + compound i.p., Day 60
# [14] = Table 1, rats, STZ + compound i.p., Day 64
structure (smiles),measurement,setting,value
"NC(=O)C1CCCN1C(=O)C(Cc1c[nH]cn1)NC(=O)C(N)CCC(=O)O (centres unmarked) [GluT, 4-Amino-4-[2-(2-carbamoyl-pyrrolidin-1-yl)-1-(1H-imidazol-4-ylmethyl)-2-oxo-ethylcarbamoyl]-butyric acid]",blood glucose level,"Tables 2-3, rats, STZ + compound 5 µg/kg, Day 1",94 mg/dL
same,blood glucose level,"Tables 2-3, rats, STZ + compound 5 µg/kg, Day 4",98 mg/dL
same,blood glucose level,"Tables 2-3, rats, STZ + compound 5 µg/kg, Day 7",466 mg/dL
same,blood glucose level,"Tables 2-3, rats, STZ + compound 5 µg/kg, Day 11",457 mg/dL
same,blood glucose level,"Tables 2-3, rats, STZ + compound 5 µg/kg, Day 15",186 mg/dL
same,blood glucose level,"Tables 2-3, rats, STZ + compound 5 µg/kg, Day 18",215 mg/dL
same,blood glucose level,"Tables 2-3, rats, STZ + compound 5 µg/kg, Day 21",213 mg/dL
same,blood glucose level,"Tables 2-3, rats, STZ + compound 5 µg/kg, Day 25",173 mg/dL
same,blood glucose level,"Tables 2-3, rats, STZ + compound 5 µg/kg, Day 28",369 mg/dL
same,blood glucose level,"Tables 2-3, rats, STZ + compound 5 µg/kg, Day 32",342 mg/dL
same,blood glucose level,"Tables 2-3, rats, STZ + compound 5 µg/kg, Day 35",336 mg/dL
same,blood glucose level,"Tables 2-3, rats, STZ + compound 5 µg/kg, Day 39",376 mg/dL
same,blood glucose level,"Tables 2-3, rats, STZ + compound 5 µg/kg, Day 42",390 mg/dL
same,blood glucose level,"Tables 2-3, rats, STZ + compound 5 µg/kg, Day 46",317 mg/dL
same,blood glucose level,"Tables 2-3, rats, STZ + compound 5 µg/kg, Day 54",260 mg/dL
same,blood glucose level,"Tables 2-3, rats, STZ + compound 5 µg/kg, Day 61",324 mg/dL
same,blood glucose level,"Tables 2-3, rats, STZ + compound 10 µg/kg, Day 1",103 mg/dL
same,blood glucose level,"Tables 2-3, rats, STZ + compound 10 µg/kg, Day 4",99 mg/dL
same,blood glucose level,"Tables 2-3, rats, STZ + compound 10 µg/kg, Day 7",415 mg/dL
same,blood glucose level,"Tables 2-3, rats, STZ + compound 10 µg/kg, Day 11",477 mg/dL
same,blood glucose level,"Tables 2-3, rats, STZ + compound 10 µg/kg, Day 15",117 mg/dL
same,blood glucose level,"Tables 2-3, rats, STZ + compound 10 µg/kg, Day 18",125 mg/dL
same,blood glucose level,"Tables 2-3, rats, STZ + compound 10 µg/kg, Day 21",103 mg/dL
same,blood glucose level,"Tables 2-3, rats, STZ + compound 10 µg/kg, Day 25",102 mg/dL
same,blood glucose level,"Tables 2-3, rats, STZ + compound 10 µg/kg, Day 28",429 mg/dL
same,blood glucose level,"Tables 2-3, rats, STZ + compound 10 µg/kg, Day 32",111 mg/dL
same,blood glucose level,"Tables 2-3, rats, STZ + compound 10 µg/kg, Day 35",128 mg/dL
same,blood glucose level,"Tables 2-3, rats, STZ + compound 10 µg/kg, Day 39",252 mg/dL
same,blood glucose level,"Tables 2-3, rats, STZ + compound 10 µg/kg, Day 42",224 mg/dL
same,blood glucose level,"Tables 2-3, rats, STZ + compound 10 µg/kg, Day 46",289 mg/dL
same,blood glucose level,"Tables 2-3, rats, STZ + compound 10 µg/kg, Day 54",255 mg/dL
same,blood glucose level,"Tables 2-3, rats, STZ + compound 10 µg/kg, Day 61",218 mg/dL
same,blood glucose level,"Tables 2-3, rats, STZ + compound 20 µg/kg, Day 1",103 mg/dL
same,blood glucose level,"Tables 2-3, rats, STZ + compound 20 µg/kg, Day 4",98 mg/dL
same,blood glucose level,"Tables 2-3, rats, STZ + compound 20 µg/kg, Day 7",461 mg/dL
same,blood glucose level,"Tables 2-3, rats, STZ + compound 20 µg/kg, Day 11",502 mg/dL
same,blood glucose level,"Tables 2-3, rats, STZ + compound 20 µg/kg, Day 15",266 mg/dL
same,blood glucose level,"Tables 2-3, rats, STZ + compound 20 µg/kg, Day 18",263 mg/dL
same,blood glucose level,"Tables 2-3, rats, STZ + compound 20 µg/kg, Day 21",382 mg/dL
same,blood glucose level,"Tables 2-3, rats, STZ + compound 20 µg/kg, Day 25",345 mg/dL
same,blood glucose level,"Tables 2-3, rats, STZ + compound 20 µg/kg, Day 28",496 mg/dL
same,blood glucose level,"Tables 2-3, rats, STZ + compound 20 µg/kg, Day 32",468 mg/dL
same,blood glucose level,"Tables 2-3, rats, STZ + compound 20 µg/kg, Day 35",485 mg/dL
same,blood glucose level,"Tables 2-3, rats, STZ + compound 20 µg/kg, Day 39",477 mg/dL
same,blood glucose level,"Tables 2-3, rats, STZ + compound 20 µg/kg, Day 42",457 mg/dL
same,blood glucose level,"Tables 2-3, rats, STZ + compound 20 µg/kg, Day 46",487 mg/dL
same,blood glucose level,"Tables 2-3, rats, STZ + compound 20 µg/kg, Day 54",389 mg/dL
same,blood glucose level,"Tables 2-3, rats, STZ + compound 20 µg/kg, Day 61",452 mg/dL
same,blood glucose level,"Tables 2-3, rats, STZ + compound 40 µg/kg, Day 1",105 mg/dL
same,blood glucose level,"Tables 2-3, rats, STZ + compound 40 µg/kg, Day 4",99 mg/dL
same,blood glucose level,"Tables 2-3, rats, STZ + compound 40 µg/kg, Day 7",548 mg/dL
same,blood glucose level,"Tables 2-3, rats, STZ + compound 40 µg/kg, Day 11",568 mg/dL
same,blood glucose level,"Tables 2-3, rats, STZ + compound 40 µg/kg, Day 15",327 mg/dL
same,blood glucose level,"Tables 2-3, rats, STZ + compound 40 µg/kg, Day 18",405 mg/dL
same,blood glucose level,"Tables 2-3, rats, STZ + compound 40 µg/kg, Day 21",472 mg/dL
same,blood glucose level,"Tables 2-3, rats, STZ + compound 40 µg/kg, Day 25",455 mg/dL
same,blood glucose level,"Tables 2-3, rats, STZ + compound 40 µg/kg, Day 28",514 mg/dL
same,blood glucose level,"Tables 2-3, rats, STZ + compound 40 µg/kg, Day 32",543 mg/dL
same,blood glucose level,"Tables 2-3, rats, STZ + compound 40 µg/kg, Day 35",507 mg/dL
same,blood glucose level,"Tables 2-3, rats, STZ + compound 40 µg/kg, Day 39",589 mg/dL
same,blood glucose level,"Tables 2-3, rats, STZ + compound 40 µg/kg, Day 42",592 mg/dL
same,blood glucose level,"Tables 2-3, rats, STZ + compound 40 µg/kg, Day 46",609 mg/dL
same,blood glucose level,"Tables 2-3, rats, STZ + compound 40 µg/kg, Day 54",531 mg/dL
same,blood glucose level,"Tables 2-3, rats, STZ + compound 40 µg/kg, Day 61",413 mg/dL
"NC(=O)C1CCCN1C(=O)C(Cc1ccccc1)NC(=O)C1CCC(=O)N1 (stereo not drawn) [PheT, 1-{3-phenyl-2-[(5-oxo-pyrrolidine-2-carbonyl)-amino]-propionyl}-pyrrolidine-2-carboxylic acid amide] ([pGlu]-Phe-Pro-NH2; configuration not given here)",blood glucose level,[1],105.8 mg/dL
same,blood glucose level,[2],316.8 mg/dL
same,blood glucose level,[3],419.8 mg/dL
same,blood glucose level,[4],130.8 mg/dL
same,blood glucose level,[5],234.4 mg/dL
same,blood glucose level,[6],359.2 mg/dL
same,blood glucose level,[7],407.2 mg/dL
same,blood glucose level,[8],434.8 mg/dL
same,blood glucose level,[9],432 mg/dL
same,blood glucose level,[10],478 mg/dL
same,blood glucose level,[11],424 mg/dL
same,blood glucose level,[12],355 mg/dL
same,blood glucose level,[13],381 mg/dL
same,blood glucose level,[14],414 mg/dL
"NC(=O)CNC(=O)C1CCCN1C(=O)C(Cc1c[nH]cn1)NC(=O)C1CCC(=O)N1 (stereo not drawn) [Glp, Glp-His-Pro-Gly-NH2] ([pGlu]HPG-NH2; configuration not given here)",blood glucose level,[1],103.8 mg/dL
same,blood glucose level,[2],396 mg/dL
same,blood glucose level,[3],446 mg/dL
same,blood glucose level,[4],275 mg/dL
same,blood glucose level,[5],348 mg/dL
same,blood glucose level,[6],419 mg/dL
same,blood glucose level,[7],431 mg/dL
same,blood glucose level,[8],448 mg/dL
same,blood glucose level,[9],423 mg/dL
same,blood glucose level,[10],416 mg/dL
same,blood glucose level,[11],432 mg/dL
same,blood glucose level,[12],400 mg/dL
same,blood glucose level,[13],468 mg/dL
same,blood glucose level,[14],421 mg/dL
